In US20200345694A1, “ANTIAGING COMPOSITION COMPRISING CYTOCHALASIN D OR SAG, AND METHOD FOR SCREENING ANTIAGING SUBSTANCE” (AMOREPACIFIC CORPORATION, priority 2017, published 2020):

What was measured:
[1] = tested on: Normal human neonatal dermal fibroblasts; assay: Expression of primary cilia in skin cells (immunofluorescence staining with ARL13B and acetylated tubulin antibodies, confocal microscope); type: cell-based; details: 48 hours, vs control group (FIG. 1)
Method: Normal human neonatal dermal fibroblasts were plated in a Lab-Tex™ 2-well glass chamber slide (Thermo Scientific, Waltham, Mass., USA) with 0.5×10^5 cells per well. 24 hours later, the cells were treated with a test substance (1.5 mL of 0.2 μM cytochalasin D, or 1.5 mL of 2 μM SAG). 48 hours, the cells were immobilized and primary cilia were stained.
The primary cilia were stained with ARL13B (Proteintech) and a-acetylated tubulin (Sigma-Aldrich) antibodies. The cells were incubated overnight at 4° C. with ARL13B antibody diluted to 1/500 based on weight and a-acetylated tubulin antibody diluted to 1/1000 based on weight in a PBS buffer supplemented with 0.1% Triton™ X-100 and 5% normal goat serum. Then, the cells were treated at room temperature for 2 hours with Alexa Fluor 594 goat anti-mouse IgG and 488 goat anti-rabbit IgG (Invitrogen) as secondary antibodies. The nuclei were stained with DAPI and observed under a confocal microscope. The experiment was repeated at least twice for independent test groups.

[2] = tested on: normal human dermal fibroblasts; assay: Procollagen I secreted to the medium of fibroblasts, measured by western blotting; type: cell-based; details: 48 hours, vs control group (FIG. 2)
Method: It was investigated whether the increase in primary cilia leads to increased secretion of procollagen to the medium.
Specifically, normal human dermal fibroblasts were cultured in DMEM supplemented with 10% FBS (fetal bovine serum), 100 mg/L streptomycin and 100,000 U/L penicillin. The cultured fibroblasts seeded onto a 6-well plate with 1×10^5 cells per well and 1.5 mL of a medium containing 0.2 μM cytochalasin D or 2 pM SAG as a test substance was added 24 hours later. This leads to increased expression of primary cilia as in Test Example 1. 48 hours after the treatment with the test substance, the medium was collected and the amount of procollagen I in the medium was measured by western blotting. The procollagen I antibody was purchased from Developmental Studies Hybridoma Bank and diluted in a PBS buffer containing 0.1% Trito™ X-100 and 5% normal goat serum to 1/10000 based on weight. As a control group (loading control), electrophoresed polyacrylamide gel was stained with 0.05% Coomassie blue and then observed. The experiment was repeated at least twice for independent test groups.

**Q.** Which “primary cilia of fibroblasts” value ([1]; 2 μM SAG) does the source give for `CN[C@H]1CC[C@H](N(Cc2cccc(-c3ccncc3)c2)C(=O)c2sc3ccccc3c2Cl)CC1` [SAG, 3-chloro-N-[trans-4-(methylamino)cyclohexyl]-N-[[3-(4-pyridinyl)phenyl]methyl]benzo[b]thiophene-2-carboxamide] here?
**A.** increased

**Q.** And the “amount of procollagen in fibroblasts (procollagen I in the medium)” value ([2]; 2 pM SAG (so in the source))?
**A.** increased

**Q.** What does the source list for `C=C1C(O)[C@@H]2/C=C/C[C@H](C)C(=O)[C@](C)(O)/C=C/[C@H](OC(C)=O)[C@]23C(=O)N[C@@H](Cc2ccccc2)[C@@H]3[C@@H]1C` (stereo partly shown) [cytochalasin D]?
**A.** primary cilia of fibroblasts ([1]; 0.2 μM cytochalasin D): increased; amount of procollagen in fibroblasts (procollagen I in the medium) ([2]; 0.2 μM cytochalasin D): increased
